Format in all cases: in vivo
For test [1], the system named is pigweed (Amaranthus retroflexus). The test is described as follows: Test A preemergence. Particulars: Amaranthus retroflexus, pre-emergence, 240 h; for pest or weed control at 125 g/ha: 125 g ai/ha, Preemergence, visual injury rating after approximately 10 d, read-out: Pigweed plant response rating (0 to 100 scale, 0 is no effect, 100 is complete control); for pest or weed control at 500 g/ha: 500 g ai/ha, preemergence, visual injury rating about 10 d after treatment, 0 to 100 scale (0 no effect, 100 complete control), read-out: Pigweed plant response rating.

The test system of another test is corn (Zea mays). The test is described as follows: Test A postemergence. Particulars: Zea mays, post-emergence, 240 h; for Corn plant response rating (crop injury, 0 = no effect, 100 = complete kill) at 125 g/ha: 125 g ai/ha, Postemergence, visual injury after approximately 10 d, 0 to 100 scale where 0 is no effect and 100 is complete control; for Corn plant response rating (crop injury, 0 = no effect, 100 = complete kill) at 500 g/ha: 500 g ai/ha, postemergence, visual injury, 0 to 100 scale (0 no effect, 100 complete control), approx. 10 d. Summed up:
(§1)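 In a loam soil and sand blend, planted seeds got a preemergence directed soil spray, and young plants at the one- to two-leaf stage, 2–10 cm high, got a postemergence application; ~10 d greenhouse hold; injury rated visually, 0 = none, 100 = complete control.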

Test [2] has as its system barnyardgrass (Echinochloa crus-galli). Description: Test A postemergence. Particulars: Echinochloa crus-galli, post-emergence, 240 h, read-out: Plant response rating, Barnyardgrass; for pest or weed control at 125 g/ha: 125 g ai/ha, Postemergence, visual injury after approximately 10 d, 0 to 100 scale where 0 is no effect and 100 is complete control; for pest or weed control at 500 g/ha: 500 g ai/ha, postemergence, visual injury, 0 to 100 scale (0 no effect, 100 complete control), approx. 10 d. In a few lines: as §1

The test system of test [3] is wheat (Triticum aestivum). The test is described as follows: Test A postemergence. Particulars: Triticum aestivum, post-emergence, 240 h, postemergence, approx. 10 d; for plant injury at 125 g/ha: 125 g ai/ha, visual injury on 0 to 100 scale (0 no effect, 100 complete control), read-out: Wheat plant response rating. Summed up:
as §1

In test [4] the test system is pigweed (Amaranthus retroflexus). The test is described as follows: Test A postemergence. Particulars: Amaranthus retroflexus, post-emergence, 240 h, postemergence, approx. 10 d; for pest or weed control at 125 g/ha: 125 g ai/ha, visual injury on 0 to 100 scale (0 no effect, 100 complete control), read-out: Pigweed plant response rating. Summed up:
as §1

In test [5] the test system is giant foxtail (Setaria faberii). The test is described as follows: Test A postemergence. Particulars: Setaria faberi, post-emergence, 240 h, postemergence, approx. 10 d; for pest or weed control at 125 g/ha: 125 g ai/ha, visual injury on 0 to 100 scale (0 no effect, 100 complete control), read-out: Foxtail, Giant plant response rating; for pest or weed control at 500 g/ha: 500 g ai/ha, visual injury, 0 to 100 scale (0 no effect, 100 complete control), read-out: Plant response rating, Foxtail, Giant. In a few lines:
as §1

Test [6] has as its system Galium (catchweed bedstraw, Galium aparine). Description: Test A postemergence. Particulars: Galium, post-emergence, 240 h, postemergence, approx. 10 d; for pest or weed control at 125 g/ha: 125 g ai/ha, visual injury on 0 to 100 scale (0 no effect, 100 complete control), read-out: Galium plant response rating; for pest or weed control at 500 g/ha: 500 g ai/ha, visual injury, 0 to 100 scale (0 no effect, 100 complete control), read-out: Plant response rating, Galium. Summed up:
as §1

Test [7] deals with ragweed (common ragweed, Ambrosia elatior). Description: Test A postemergence. Particulars: Ambrosia artemisiifolia, post-emergence, 240 h, postemergence, approx. 10 d; for pest or weed control at 125 g/ha: 125 g ai/ha, visual injury on 0 to 100 scale (0 no effect, 100 complete control), read-out: Ragweed plant response rating. Summed up: as §1
The test system of test [8] is ryegrass, Italian (Italian ryegrass, Lolium multiflorum). The test is described as follows: Test A postemergence. Particulars: Lolium multiflorum, post-emergence, 240 h, postemergence, approx. 10 d; for pest or weed control at 125 g/ha: 125 g ai/ha, visual injury on 0 to 100 scale (0 no effect, 100 complete control), read-out: Ryegrass, Italian plant response rating. Summed up:
as §1

For test [9], the system named is blackgrass (Alopecurus myosuroides). Description: Test A postemergence. Particulars: Alopecurus myosuroides, post-emergence, 240 h, read-out: Plant response rating, Blackgrass; for pest or weed control at 125 g/ha: 125 g ai/ha, Postemergence, visual injury after approximately 10 d, 0 to 100 scale where 0 is no effect and 100 is complete control; for pest or weed control at 500 g/ha: 500 g ai/ha, postemergence, visual injury, 0 to 100 scale (0 no effect, 100 complete control), approx. 10 d. Summed up: as §1

For another test, the system named is Kochia (Kochia scoparia). Description: Test A postemergence. Particulars: Bassia scoparia, post-emergence, 240 h, postemergence, approx. 10 d; for pest or weed control at 125 g/ha: 125 g ai/ha, visual injury on 0 to 100 scale (0 no effect, 100 complete control), read-out: Kochia plant response rating; for pest or weed control at 500 g/ha: 500 g ai/ha, visual injury, 0 to 100 scale (0 no effect, 100 complete control), read-out: Plant response rating, Kochia. In a few lines:
as §1

The test system of test [10] is barnyardgrass (Echinochloa crus-galli). The test is described as follows: Test B flooded paddy test. Particulars: Echinochloa crus-galli, 250 g ai/ha, Flood; 0 to 100 scale where 0 is no effect and 100 is complete control; read-out: Barnyardgrass plant response rating. Summed up: (§2)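 Flooding to 3 cm over soil accompanied treatment, which consisted of adding compound to the standing water around 2-leaf plants; depth was then maintained. Visual assessment versus controls followed at 13 to 15 d (scale 0–100, 0 meaning no effect).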

For test [11], the system named is ducksalad (Heteranthera limosa). The test is described as follows: Test B flooded paddy test. Particulars: Heteranthera limosa, 250 g ai/ha, Flood; 0 to 100 scale where 0 is no effect and 100 is complete control; read-out: Ducksalad plant response rating. Summed up: as §2
For test [12], the system named is sedge, umbrella (small-flower umbrella sedge, Cyperus difformis). The test is described as follows: Test B flooded paddy test. Particulars: Cyperus difformis, 250 g ai/ha, Flood; 0 to 100 scale where 0 is no effect and 100 is complete control; read-out: Sedge, Umbrella plant response rating. Summed up: as §2
For a further test, the system named is rice (Oryra sativa). Description: Test B flooded paddy test. Particulars: Oryza sativa, 250 g ai/ha, Flood; 0 to 100 scale where 0 is no effect and 100 is complete control; read-out: Rice plant response rating. Summed up:
as §2

Our source for the pest or weed control, Corn plant response rating (crop injury, 0 = no effect, 100 = complete kill) and plant injury values is US12077503B2, “Substituted cyclic amides and their use as herbicides” (FMC CORPORATION, priority 2015, dated 2024).

Molecules are shown by their SMILES.

`Cc1ccc([C@H]2CN(C)C(=O)[C@@H]2C(=O)Nc2cccc(F)c2F)cc1C` [Compound 1039]: the pest or weed control at 125 g/ha in [1] turned out to be 20%; in [2], 90%; in test [4], 0%; in test [5] it was 90%; in test [6], 40%; in [7] it was 10%. Further, the figures for the pest or weed control at 125 g/ha (in test [8]; in test [9]; with Kochia (Kochia scoparia)) were 50%, 30% and 40%, respectively. Moreover, the pest or weed control at 500 g/ha stood at 40% in [1]; 90% in test [2]; 90% in test [5]; 60% in [6]; 40% in test [9]; 60% in the test with Kochia (Kochia scoparia). In addition, the Corn plant response rating (crop injury, 0 = no effect, 100 = complete kill) at 125 g/ha in the test with corn (Zea mays) is 70%. Besides, in the test on corn (Zea mays), the Corn plant response rating (crop injury, 0 = no effect, 100 = complete kill) at 500 g/ha amounted to 70%. For the same compound, the plant injury at 125 g/ha in test [3] was 50%. In addition, the pest or weed control at 250 g/ha in [10] is 65%; in [11], 90%; in test [12] it was 0%; with rice (Oryra sativa), 0%.
As for `CC(C)COc1cccc([C@H]2CN(C)C(=O)[C@@H]2C(=O)Nc2cccc(F)c2F)c1` [Compound 1029], the pest or weed control at 125 g/ha in test [1] stood at 0%; in test [2], 80%; in test [4] it was 0%; in test [5], 80%; in [6] it was 20%; in test [7], 0%. Besides, the pest or weed control at 125 g/ha is 0% in test [8], 30% in test [9] and 0% in the test with Kochia (Kochia scoparia). The pest or weed control at 500 g/ha was 0% in test [1]; 90% in test [2]; 0% in test [4] (500 g ai/ha, visual injury, 0 to 100 scale (0 no effect, 100 complete control), read-out: Plant response rating, Pigweed); 90% in test [5]; 40% in test [6]; 0% in [7] (500 g ai/ha, visual injury, 0 to 100 scale (0 no effect, 100 complete control), read-out: Plant response rating, Ragweed). The pest or weed control at 500 g/ha in [8] (500 g ai/ha, visual injury, 0 to 100 scale (0 no effect, 100 complete control), read-out: Plant response rating, Ryegrass, Italian) is 40%; in [9], 40%; in the test with Kochia (Kochia scoparia), 0%. Also, in the test with corn (Zea mays), the Corn plant response rating (crop injury, 0 = no effect, 100 = complete kill) at 125 g/ha came to 50%. In the test on corn (Zea mays), this compound had a Corn plant response rating (crop injury, 0 = no effect, 100 = complete kill) at 500 g/ha of 70%. Further, the plant injury at 125 g/ha in test [3] is 30%. For the same compound, in test [3] (500 g ai/ha, visual injury, 0 to 100 scale (0 no effect, 100 complete control), read-out: Plant response rating, Wheat), the plant injury at 500 g/ha turned out to be 60%. For the same compound, the pest or weed control at 250 g/ha in [10] worked out at 0%; in test [11] it was 85%; in test [12] it was 0%; in the test on rice (Oryra sativa) it was 0%.
